Measured values taken from the NIST ThermoML archive (doi:10.1016/j.jct.2011.12.015).
± gives the expanded uncertainty stated by the source.

Tests used:
[1] = Crystal; DTA
[2] = Molar enthalpy of transition or fusion; details: Crystal; DSC
[3] = molar heat capacity at constant pressure; details: 101.33 kPa, Small sample (50 mg) DSC

CCCCOC(=O)c1ccc(O)cc1 [butyl 4-hydroxybenzoate]
Details	Molar enthalpy of transition or fusion [kJ/mol]	Normal melting temperature [°C]
[1]	–	67.34 ± 0.5
[2]	25.5 ± 0.74	–

[3]
Details	molar heat capacity at constant pressure [J/K/mol]
291.02 K, Crystal	264.15 ± 53
293.6 K, Crystal	266.09 ± 53
296.12 K, Crystal	268.23 ± 54
298.7 K, Crystal	270.36 ± 54
301.32 K, Crystal	272.5 ± 55
303.91 K, Crystal	274.64 ± 55
306.52 K, Crystal	276.58 ± 56
309.1 K, Crystal	278.72 ± 56
311.71 K, Crystal	281.05 ± 56
314.32 K, Crystal	283.18 ± 57
316.9 K, Crystal	285.32 ± 57
319.51 K, Crystal	287.65 ± 58
322.12 K, Crystal	289.79 ± 58
324.73 K, Crystal	292.31 ± 59
328.33 K, Crystal	296.2 ± 59
329.85 K, Crystal	298.33 ± 60
330.99 K, Crystal	299.89 ± 60
353.41 K, Liquid	386.9 ± 77
355.11 K, Liquid	388.45 ± 78
356.8 K, Liquid	389.04 ± 78
358.41 K, Liquid	389.81 ± 78
360.1 K, Liquid	390.4 ± 78
361.82 K, Liquid	391.17 ± 78
363.51 K, Liquid	391.76 ± 78
365.21 K, Liquid	392.53 ± 79
366.81 K, Liquid	392.92 ± 79
368.41 K, Liquid	393.7 ± 79
370.1 K, Liquid	394.09 ± 79
371.82 K, Liquid	394.67 ± 79
373.51 K, Liquid	395.25 ± 79
375.2 K, Liquid	395.83 ± 79
376.92 K, Liquid	396.42 ± 79
378.61 K, Liquid	397 ± 80
379.87 K, Liquid	397.39 ± 80

O=C(O)c1ccccc1 [benzoic acid]
Details	Molar enthalpy of transition or fusion [kJ/mol]	Normal melting temperature [°C]
[1]	–	121.80 ± 0.5
[2]	16.8 ± 0.52	–

[3]
Details	molar heat capacity at constant pressure [J/K/mol]
281.06 K, Crystal	137.39 ± 28
287.01 K, Crystal	140.07 ± 28
293.02 K, Crystal	142.88 ± 29
299 K, Crystal	145.2 ± 29
305.01 K, Crystal	147.4 ± 30
311.02 K, Crystal	149.72 ± 30
317 K, Crystal	152.16 ± 31
323.03 K, Crystal	154.48 ± 31
329.02 K, Crystal	156.93 ± 32
335.02 K, Crystal	159.49 ± 32
341.01 K, Crystal	161.93 ± 32
347.02 K, Crystal	164.38 ± 33
353 K, Crystal	166.7 ± 33
359.01 K, Crystal	168.89 ± 34
365.01 K, Crystal	171.21 ± 34
369.32 K, Crystal	172.8 ± 35
407.4 K, Liquid	230.44 ± 46
409 K, Liquid	231.42 ± 46
410.6 K, Liquid	232.15 ± 47
413.2 K, Liquid	233.01 ± 47
414.8 K, Liquid	233.5 ± 47
416.5 K, Liquid	233.74 ± 47
418 K, Liquid	233.98 ± 47
419.6 K, Liquid	234.35 ± 47
421.2 K, Liquid	234.72 ± 47
422.8 K, Liquid	235.08 ± 47
424.4 K, Liquid	235.45 ± 47
426 K, Liquid	235.82 ± 47
427.6 K, Liquid	236.06 ± 47
429.2 K, Liquid	236.43 ± 47
430.8 K, Liquid	236.79 ± 48
432 K, Liquid	237.16 ± 48
